Earlier results on one compound are cited in patent USRE37727E1, “Method for treating nerve injury pain associated with shingles” (priority 1989, dated 2002).

For the data set the following is noted: venous; reported range.

On to `CCN(CC)CC(=O)Nc1c(C)cccc1C` [lidocaine], for which the “minimum concentrations of lidocaine for anti-arrhythmic effects” value is 0.6 to 2.0 µg/mL.
